# Key:
# Type in all cases: binding, influenza A/California/04/2009(H1N1)
# Details in all cases: 200 µM
# [1] = biological target: I38T mutant PAN endonuclease (Influenza A virus, UniProt C3W5S0, DEL52-64/I38T/INS51G, form not given)
# [2] = biological target: E23K mutant PAN endonuclease (Influenza A virus, UniProt C3W5S0, DEL52-64/E23K/INS51G, form not given)
# [3] = biological target: WT PAN endonuclease (Influenza A virus, UniProt C3W5S0, DEL52-64/INS51G, form not given)
structure (smiles),measurement,setting,value
CSc1ccccc1-c1cc(=O)c(O)c(C(=O)O)[nH]1 [Compound 3],I38T ΔTm (thermal shift),[1],10.86 ± 0.12 °C
same,E23K ΔTm (thermal shift),[2],7.21 ± 0.15 °C
same,WT ΔTm (thermal shift),[3],10.89 ± 0.12 °C

# — paper PMC13298843, “Substituent size versus metal binding of inhibitors with variants of influenza endonuclease^” (Journal of inorganic biochemistry, 2025)
